Measurements published in patent publication US5739294A, “Bicyclopol yazamacrocyclophosphonic acid complexes for use as contrast agents” (priority 1994, dated 1998).

Assays:
[1] = MRI imaging experiments in rats; assay type: in vivo, Sprague Dawley rat; details: rat, intramuscular, 0.05-0.1 mmol Gd/kg
Method: Injectable solutions were first prepared (0.5M) by dissolving the appropriate amount of each complex in 2 mL of deionized water. The pH of the solutions were then adjusted to 7.4 using 1M HCl or NaOH as needed. The total Gd content of each solution was then determined by ICP analysis.
An anesthetized Sprague Dawley rat was injected intramuscularly with one of the metal solutions described above at a dose of 0.05-0.1 mmol Gd/kg body weight. Images were then taken at various time intervals and compared with a non-injected control at time 0.

[2] = in vivo; cited from earlier work
[3] = compared with Magnevist; cited from earlier work
[4] = biodistribution, percent of injected dose in tissues of rats; assay type: in vivo, Sprague Dawley rats; details: rat, tail vein; for % injected dose, Blood: blood assumed 7% of body weight; for % injected dose, Muscle: muscle assumed 43% of body weight; for % injected dose, Bone: percent dose in femur × 25
Method: Sprague Dawley rats were allowed to acclimate for five days then injected with 100 μL of the complex solution via a tail vein. The rats weighed between 150 and 200 g at the time of injection. […] The amount of radioactivity in each tissue was determined by counting in a NaI scintillation counter coupled to a multichannel analyzer. The counts were compared to the counts in 100 μL standards in order to determine the percentage of the dose in each tissue or organ.
The percent dose in blood was estimated assuming blood to be 7% of the body weight. The percent dose in bone was estimated by multiplying the percent dose in the femur by 25. The percent dose in muscle was estimated assuming muscle to be 43% of the body weight. […]

[5] = percent metal as a complex (Sephadex column, ^153 Sm tracer); assay type: physicochemical; details: 1:1 ligand/metal, SmCl3 3×10^-4 M in 0.01N HCl
Method: A stock ^159 GdCl3 (or ^153 SmCl3) solution was prepared by adding 2 μL of 3×10^-4 M ^159 GdCl3 in 0.1N HCl to 2 mL of a 3×10^-4 M GdCl3 carrier solution. Appropriate ligand solutions were then prepared in deionized water. The 1:1 ligand/metal complexes were then prepared by combining the ligands (dissolved in 100-500 μL of deionized water) with 2 mL of the stock ^159 GdCl3 solution, followed by through mixing to give an acidic solution (pH=2). The pH of the solution was then raised to 7.0 using 0.1N NaOH. The percent metal as a complex was then determined by passing a sample of the complex solution through a Sephadex™ G-50 column, eluting with 4:1 saline ([…]) and collecting 2×3 mL fractions. The amount of radioactivity in the combined elutions was then compared with that left on the resin (non-complexed metal is retained on the resin). […]
A solution of the ligand of Example 1 was prepared by dissolving 3.8 mg of ligand/0.517 mL of deionized water (pH=2). […] After thorough mixing, the percent metal as a complex was determined by passing a sample of the complex solution through a Sephadex™ column, eluting with 4:1 saline (0.85% NaCl/NH4 OH), and collecting 2×3 mL fractions. The amount of radioactivity in the combined elutions was then compared with that left on the resin. […] By this method complexation was determined to be 98%. […]

O=P(O)(O)CN1CCN(CP(=O)(O)O)Cc2cccc(n2)CN(CP(=O)(O)O)CC1.[Gd] [Gd-PCTMP]
MR image enhancement, kidney [1]: kidney enhancement | bone localization in MR image [1]: bone localization in the shoulder, spine and sternum

CNC[C@H](O)[C@@H](O)[C@H](O)[C@H](O)CO.CNC[C@H](O)[C@@H](O)[C@H](O)[C@H](O)CO.O=C([O-])CN(CCN(CC(=O)[O-])CC(=O)O)CCN(CC(=O)[O-])CC(=O)O.[Gd+3] [MAGNEVIST, complex of gadolinium with diethylenetriaminepentaacetic acid]
distribution [2]: freely distributes in extracellular fluid | elimination [2]: efficient elimination through the renal system

CC(O)CN1CCN(CC(=O)[O-])CCN(CC(=O)[O-])CCN(CC(=O)[O-])CC1.[Gd+3] (centres unmarked) [PROHANCE, [1,4,7-tris(carboxymethyl)-10-(2-hydroxypropyl)-1,4,7,10-tetraazacyclododecanato]-gadolinium]
distribution [2]: freely distributes in extracellular fluid | elimination [2]: efficient elimination through the renal system | side effects [3]: fewer side effects than Magnevist

O=C(O)CN1CCN(CP(=O)(O)O)CCN(CC(=O)O)Cc2cccc(n2)C1.[153Sm] [^153 Sm-PC2A1P]
% injected dose, Brain ([4]; 2 hours post injection): 0.01% | % injected dose, Heart ([4]; 2 hours post injection): 0.04% | % injected dose, Kidney ([4]; 2 hours post injection): 0.93% | % injected dose, Large Intestine ([4]; 2 hours post injection): 0.12% | % injected dose, Liver ([4]; 2 hours post injection): 1.46% | % injected dose, Lung ([4]; 2 hours post injection): 0.06% | % injected dose, Small Intestine ([4]; 2 hours post injection): 13.10% | % injected dose, Spleen ([4]; 2 hours post injection): 0.02% | % injected dose, Stomach ([4]; 2 hours post injection): 0.25% | % injected dose, Blood ([4]; 2 hours post injection): 0.36% | % injected dose, Muscle ([4]; 2 hours post injection): 1.00% | % injected dose, Bone ([4]; 2 hours post injection): 47.98%

CCCCOP(=O)([O-])CN1CCN(CP(=O)([O-])OCCCC)Cc2cccc(n2)CN(CP(=O)([O-])OCCCC)CC1.[153Sm+3] [^153 Sm-PMBHE]
% injected dose, Brain ([4]; 2 hours post injection): 0.00% | % injected dose, Heart ([4]; 2 hours post injection): 0.02% | % injected dose, Kidney ([4]; 2 hours post injection): 0.43% | % injected dose, Large Intestine ([4]; 2 hours post injection): 0.77% | % injected dose, Liver ([4]; 2 hours post injection): 2.70% | % injected dose, Lung ([4]; 2 hours post injection): 0.04% | % injected dose, Small Intestine ([4]; 2 hours post injection): 57.89% | % injected dose, Spleen ([4]; 2 hours post injection): 0.05% | % injected dose, Stomach ([4]; 2 hours post injection): 0.08% | % injected dose, Blood ([4]; 2 hours post injection): 0.14% | % injected dose, Muscle ([4]; 2 hours post injection): 1.09% | % injected dose, Bone ([4]; 2 hours post injection): 3.73%

CCCOP(=O)([O-])CN1CCN(CP(=O)([O-])OCCC)Cc2cccc(n2)CN(CP(=O)([O-])OCCC)CC1.[153Sm+3] [^153 Sm-PMPHE]
% injected dose, Brain ([4]; 2 hours post injection): 0.00% | % injected dose, Heart ([4]; 2 hours post injection): 0.08% | % injected dose, Kidney ([4]; 2 hours post injection): 1.55% | % injected dose, Large Intestine ([4]; 2 hours post injection): 2.17% | % injected dose, Liver ([4]; 2 hours post injection): 4.14% | % injected dose, Lung ([4]; 2 hours post injection): 0.12% | % injected dose, Small Intestine ([4]; 2 hours post injection): 10.71% | % injected dose, Spleen ([4]; 2 hours post injection): 0.05% | % injected dose, Stomach ([4]; 2 hours post injection): 0.44% | % injected dose, Blood ([4]; 2 hours post injection): 0.25% | % injected dose, Muscle ([4]; 2 hours post injection): 1.19% | % injected dose, Bone ([4]; 2 hours post injection): 10.86%

^153 Sm-3,6,9,15-tetraazabicyclo[9.3.1]pentadeca-1(15),11,13-triene-3,6,9-trimethylenephosphonic acid [^153 Sm-PCTMP]
complexation (percent metal as a complex) [5]: 98% | % injected dose, Kidney ([4]; 30 min (general procedure)): 1.42% | % injected dose, Liver ([4]; 30 min (general procedure)): 0.99% | % injected dose, Spleen ([4]; 30 min (general procedure)): 0.07% | % injected dose, Blood ([4]; 30 min (general procedure)): 6.27% | % injected dose, Muscle ([4]; 30 min (general procedure)): 4.77% | % injected dose, Bone ([4]; 30 min (general procedure)): 34.87%
